We go through 31 compounds from patent publication US6875760B2 (Novo Nordisk A/S, priority 1999, dated 2005).

T1 sequence (P47871 26-477): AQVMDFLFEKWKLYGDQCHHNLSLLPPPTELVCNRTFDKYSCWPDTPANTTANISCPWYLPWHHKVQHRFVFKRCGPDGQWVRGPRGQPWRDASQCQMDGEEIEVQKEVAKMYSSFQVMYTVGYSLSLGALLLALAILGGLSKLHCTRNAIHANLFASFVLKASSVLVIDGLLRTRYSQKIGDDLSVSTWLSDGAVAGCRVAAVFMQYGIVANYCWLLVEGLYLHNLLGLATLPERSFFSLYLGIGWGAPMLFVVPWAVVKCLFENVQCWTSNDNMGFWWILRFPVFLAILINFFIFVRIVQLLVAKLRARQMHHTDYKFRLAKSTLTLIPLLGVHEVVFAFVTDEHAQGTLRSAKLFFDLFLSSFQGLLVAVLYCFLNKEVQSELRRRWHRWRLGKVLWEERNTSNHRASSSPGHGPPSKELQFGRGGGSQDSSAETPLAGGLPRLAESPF

The first experiment has as its target T1, human glucagon receptor (Homo sapiens, UniProt P47871).
T1 construct: expressed in transfected cells; host or cells: BHK (baby hamster kidney) cells
Briefly: Glucagon Binding Assay (III). Particulars: BHK cell membranes, WGA SPA beads, 125I-glucagon; read-out: Glu Bd Assay (III) IC50. The procedure, abridged:
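Membranes from BHK cells transfected with the human receptor, prepared at 4 °C, were used in a WGA-bead scintillation proximity binding format. Plates were shaken for 4 hours, left to settle 8–48 hours and then counted. Non-specific binding was defined with 500 nM glucagon.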
Usually IC50 stands for the concentration needed to halve the response being measured. On to `O=C(O)CCNC(=O)c1ccc(CN(C(=O)Nc2ccc(OC(F)(F)F)cc2)c2cnc3ccccc3c2)cc1` [Example 436, 3-{4-[1-Quinolin-3-yl-3-(4-trifluoromethoxyphenyl)ureidomethyl]benzoylamino}propionic acid], for which the IC50 was 1990 nM.

Regarding `O=C(Nc1nn[nH]n1)c1ccc(CN(C(=O)Nc2ccc(Br)c(C(F)(F)F)c2)c2ccc(C3=CCCCC3)cc2)cc1` [Example 601, 4-[3-(4-Bromo-3-trifluoromethylphenyl)-1-(4-cyclohex-1-enylphenyl)ureidomethyl]-N-(2H-tetrazol-5-yl)benzamide], the concentration for half-maximal inhibition (IC50) was determined as 17 nM.

For `O=C(Nc1nn[nH]n1)c1ccc(CN(C(=O)NCc2ccccc2Br)c2ccc(C3CCCCC3)cc2)cc1` [Example 345, 4-[3-(2-Bromobenzyl)-1-(4-cyclohexylphenyl)ureidomethyl]-N-(2H-tetrazol-5-yl)benzamide], the IC50 was 64 nM.

Turning to `COc1cccc2cc(C(C)NC(=O)N(Cc3ccc(C(=O)Nc4nn[nH]n4)cc3)c3ccc(C4CCCCC4)cc3)ccc12` (stereo not shown) [Example 379, 4-{1-(4-Cyclohexylphenyl)-3-[1-(5-methoxynaphthalen-2-yl)ethyl]ureidomethyl}-N-(2H-tetrazol-5-yl)benzamide], the IC50 came out at 66 nM.

As to `O=C(Nc1nn[nH]n1)c1ccc(CN(C(=O)Nc2ccc(F)c(C(F)(F)F)c2)c2ccc(C3=CCCCC3)cc2)cc1` [Example 328, 4-[1-(4-Cyclohex-1-enylphenyl)-3-(4-fluoro-3-trifluoromethylphenyl)ureidomethyl]-N-(2H-tetrazol-5-yl)benzamide], the IC50 was 14 nM.

Regarding `COc1ccc2nc(NC(=O)N(Cc3ccc(C(=O)Nc4nn[nH]n4)cc3)c3ccc(C4CCCCC4)cc3)sc2c1` [Example 365, 4-[1-(4-Cyclohexylphenyl)-3-(6-methoxybenzothiazol-2-yl)ureidomethyl]-N-(2H-tetrazol-5-yl)benzamide], the half-inhibitory concentration (IC50) worked out at 1430 nM.

Consider `CC(C)(C)C1CCC(N(Cc2ccc(C(=O)NCCC(=O)O)cc2)C(=O)Oc2cc(Cl)cc(Cl)c2)CC1` (stereo not shown) [Example 402, 3-(4-{[(4-tert-Butylcyclohexyl)-(3,5-dichlorophenoxycarbonyl)amino]methyl}benzoylamino)propionic acid], for which the IC50 came to 176 nM.

As for `CN(c1ccccc1)S(=O)(=O)c1cccc(NC(=O)N(Cc2ccc(C(=O)NCCC(=O)O)cc2)c2ccc(C3CCCCC3)cc2)c1` [Example 322, 3-(4-{1-(4-cyclohexylphenyl)-3-[3-(methylphenylsulfamoyl)phenyl]ureidomethyl}benzoylamino)propionic acid], the IC50 stood at 41 nM.

With `CCOC(=O)c1ccc2nc(NC(=O)N(Cc3ccc(C(=O)NCCC(=O)O)cc3)[C@H]3CC[C@H](C(C)(C)C)CC3)sc2c1` [Example 254, 2-{3-(4-trans-tert-Butylcyclohexyl)-3-[4-(2-carboxyethylcarbamoyl)benzyl]ureido}benzothiazole-6-carboxylic acid ethyl ester], the IC50 was 266 nM.

As to `O=C(Nc1nn[nH]n1)c1ccc(CN(C(=O)Nc2cccc(SC3CCCC3)c2)c2ccc(C3CCCCC3)cc2)cc1` [Example 300, 4-[1-(4-Cyclohexylphenyl)-3-(3-cyclopentylsulfanylphenyl)ureidomethyl]-N-(2H-tetrazol-5-yl)benzamide], the IC50 is 197 nM.

In the case of `CCCCc1ccc(N(Cc2ccc(C(=O)Nc3nn[nH]n3)cc2)C(=O)Nc2cccc(S(C)(=O)=O)c2)cc1` [Example 447, 4-[1-(4-Butylphenyl)-3-(3-methylsulfonylphenyl)ureidomethyl]-N-(2H-tetrazol-5-yl)benzamide], the 50% inhibitory concentration (IC50) was 327 nM.

As to `COc1ccc(NC(=O)N(Cc2ccc(C(=O)NCCC(=O)O)cc2)C2CCC(C(C)(C)C)CC2)cc1` (stereo not shown) [Example 31, 3-{4-[1-(4-tert-Butylcyclohexyl)-3-(4-methoxyphenyl)ureidomethyl]benzoyl}aminopropionic acid], the IC50 came to 2200 nM.

Turning to `CCCCNS(=O)(=O)c1ccc(NC(=O)N(Cc2ccc(C(=O)NCCC(=O)O)cc2)[C@H]2CC[C@H](C(C)(C)C)CC2)cc1` [Example 239, 3-{4-[1-(trans-4-tert-Butylcyclohexyl)-3-(4-butylsulfamoylphenyl)ureidomethyl]benzoylamino}propionic acid], the concentration for half-maximal inhibition (IC50) came out at 1890 nM.

Consider `Cc1ccc(NC(=O)N(Cc2ccc(C(=O)NCCS(=O)(=O)O)cc2)c2ccc(C(C)(C)C)cc2)cc1S(C)(=O)=O` [Example 569, 2-{4-[1-(4-tert-Butylphenyl)-3-(3-methylsulfonyl-4-methylphenyl)ureidomethyl]-benzoylamino}ethanesulfonic acid], for which the 50% inhibitory concentration (IC50) amounted to 1770 nM.

With `O=C(O)CCNC(=O)c1ccc(CN(C(=O)Nc2cc(Br)cc(C(F)(F)F)c2)c2ccc(C3CCCCC3)cc2)cc1` [Example 394, 3-{4-[1-(4-Cyclohexylphenyl)-3-(3-bromo-5-trifluoromethylphenyl)ureidomethyl]benzoylamino}propionic acid], the concentration for half-maximal inhibition (IC50) turned out to be 17 nM.

As for `CS(=O)(=O)c1cccc(NC(=O)N(Cc2ccc(C(=O)Nc3nn[nH]n3)cc2)c2ccc(C3CCCCC3)cc2)c1` [Example 444, 4-[1-(4-Cyclohexylphenyl)-3-(3-methylsulfonylphenyl)ureidomethyl]-N-(2H-tetrazol-5-yl)benzamide], the IC50 came out at 42 nM.

On to `CC(C)(C)[Si](C)(C)OCc1cc(NC(=O)N(Cc2ccc(C(=O)Nc3nn[nH]n3)cc2)c2ccc(C3CCCCC3)cc2)ccc1OC(F)(F)F` [Example 311, 4-[3-[3-(tert-Butyldimethylsilanyloxymethyl)-4-trifluoromethoxyphenyl]-1-(4-cyclohexylphenyl)ureidomethyl]-N-(2H-tetrazol-5-yl)benzamide], for which the IC50 turned out to be 32 nM.

Turning to `CSc1cccc(NC(=O)N(Cc2ccc(C(=O)Nc3nn[nH]n3)cc2)c2ccc(N3CCCCC3)cc2)c1` [Example 317, 4-[3-(3-Methylsulfanylphenyl)-1-(4-piperidin-1-ylphenyl)ureidomethyl]-N-(2H-tetrazol-5-yl)benzamide], the IC50 was determined as 788 nM.

As for `CC(C)(C)[C@H]1CC[C@H](N(Cc2ccc(C(=O)NCCC(=O)O)cc2)C(=O)Nc2ccc(OC(F)(F)F)c(C#N)c2)CC1` [Example 251, 3-{4-[1-(trans-4-tert-Butylcyclohexyl)-3-(3-cyano-4-trifluoromethoxyphenyl)ureidomethyl]benzoylamino}propionic acid], the IC50 was 56 nM.

Regarding `COC(=O)CCNC(=O)c1ccc(CN(C(=O)Nc2ccc(OC(F)(F)F)cc2)[C@H]2CC[C@H](C(C)(C)C)CC2)cc1` [Example 98, 3-{4-[1-(trans-4-tert-Butylcyclohexyl)-3-(4-trifluoromethoxyphenyl)ureidomethyl]benzoylamino}propionic acid methyl ester], the IC50 turned out to be 83 nM.

With `O=C(Nc1nn[nH]n1)c1ccc(CN(C(=O)Nc2ccc(OC(F)(F)F)c(CO)c2)c2ccc(C3CCCCC3)cc2)cc1` [Example 568], the 50% inhibitory concentration (IC50) was found to be 13 nM.

With `CCCCc1ccc(N(Cc2ccc(C(=O)Nc3nn[nH]n3)cc2)C(=O)Nc2cccc(C#N)c2)cc1` [Example 281, 4-[1-(4-Butylphenyl)-3-(3-cyanophenyl)ureidomethyl]-N-(2H-tetrazol-5-yl)benzamide], the concentration for half-maximal inhibition (IC50) amounted to 185 nM.

`Cn1nnc(-c2cccc(NC(=O)N(Cc3ccc(C(=O)Nc4nn[nH]n4)cc3)c3ccc(C4CCCCC4)cc3)c2)n1` [Example 371]: the IC50 turned out to be 52 nM.

In the case of `CC(C)(C)C1CCC(N(Cc2ccc(C(=O)Nc3nn[nH]n3)cc2)C(=O)c2ccc(Cc3ccccc3)cc2)CC1` (stereo not shown) [Example 512, 4-{[(4-tert-Butylcyclohexyl)-(4-benzylbenzoyl)amino]methyl}-N-(2H-tetrazol-5-yl)benzamide], the half-inhibitory concentration (IC50) was 111 nM.

For `CCCCN1C(=O)c2ccc(NC(=O)N(Cc3ccc(C(=O)NCCC(=O)O)cc3)c3ccc(C(C)(C)C)cc3)cc2C1=O` [Example 626, 3-{4-[3-(N′-Butylphthalimid-4-yl)-1-(4-tert-butylphenyl)ureidomethyl]benzoylamino}propionic acid], the IC50 came out at 38 nM.

As to `O=C(Nc1nn[nH]n1)c1ccc(CN(C(=O)Cc2ccc3ccccc3c2)c2ccc(C3CCCCC3)cc2)cc1` [Example 499, 4-{[(4-Cyclohexylphenyl)-(2-naphth-2-ylacetyl)amino]methyl}-N-(2H-tetrazol-5-yl)benzamide], the IC50 was determined as 136 nM.

With `CC(C)(C)c1ccc(N(Cc2ccc(C(=O)NCCC(=O)O)cc2)C(=O)Nc2ccc(OC(F)(F)F)cc2)cc1` [Example 373, 3-{4-[1-(4-tert-Butylphenyl)-3-(4-trifluoromethoxyphenyl)ureidomethyl]benzoylamino}propionic acid], the concentration for half-maximal inhibition (IC50) was found to be 96 nM.

On to `CC(C)(C)c1ccc(N(Cc2ccc(C(=O)Nc3nn[nH]n3)cc2)C(=O)Nc2ccc3c(c2)S(=O)(=O)CC3)cc1` [Example 259, 4-[1-(4-tert-Butylphenyl)-3-(1,1-dioxo-2,3-dihydro-1H-benzo[b]thiophen-6-yl)ureidomethyl]-N-(2H-tetrazol-5-yl)benzamide], for which the IC50 worked out at 1690 nM.

In the case of `CS(=O)(=O)c1cccc(NC(=O)N(Cc2ccc(C(=O)NCCC(=O)O)cc2)c2ccc(C3CCCCC3)cc2)c1` [Example 469, 3-{4-[1-(4-Cyclohexylphenyl)-3-(3-methylsulfonylphenyl)ureidomethyl]benzoylamino}propionic acid], the concentration for half-maximal inhibition (IC50) is 631 nM.

On to `CC(C)(C)C1CCC(N(Cc2ccc(C(=O)NCCC(=O)O)cc2)C(=O)Nc2ccc(Oc3ccccc3)nc2)CC1` (stereo not shown) [Example 246, 3-{4-[1-(4-tert-Butylcyclohexyl)-3-(6-phenoxypyridin-3-yl)ureidomethyl]benzoylamino}propionic acid], for which the IC50 was 146 nM.

Still in this experiment, the particulars now being: Glu Bd Assay (III) IC50 (nM), BHK cell membranes, WGA SPA beads, 125I-glucagon.
In the case of `CC(C)(C)[C@H]1CC[C@H](N(Cc2ccc(C(=O)NCCC(=O)O)cc2)C(=O)Nc2cc(C(F)(F)F)cc(C(F)(F)F)c2)CC1` [Example 237, 3-{4-[3-(3,5-Bis-trifluoromethylphenyl)-1-(trans-4-tert-butylcyclohexyl)ureidomethyl]benzoylamino}propionic acid], the IC50 was determined as 56 nM.
